These are literature values, as cited in article PMC5732038 (ACS chemical biology, 2017).

The test system of the data set is methicillin resistant Staphylococcus aureus (MRSA). Conditions: several Gram-positive bacteria including MRSA.

On to Sublancin, for which the antimicrobial activity result is on record as “antimicrobial activity”.
